ChEMBL document CHEMBL3046319, “PCR-RFLP detection of the E198A mutation conferring resistance to benzimidazoles in field isolates of Monilinia laxa from Greece” (Crop Prot, 2012)
≈ marks a conversion by molar mass, not a printed value. Calls of active or inactive are those of the source. The calls are words filed in the database; no cut-off is given here.

Key:
Monilinia laxa [1] = assay: Fungicidal activity against Monilinia laxa isolate MLK8 assessed as reduction in mycelial growth rate at 1 to 10 ug/ml at 31 degC after 5 days; type: functional, organism-based
Monilinia laxa [2] = assay: Fungicidal activity against Monilinia laxa isolate MLA1 assessed as mean number of conidia produced in the colony at 25 degC after 12 days by haemocytometer; type: functional
Monilinia laxa [3] = assay: Fungicidal activity against Monilinia laxa isolate MLX1 assessed as mycelial growth at 1 ug/ml at 25 degC after 4 days; type: functional
Monilinia laxa [4] = assay: Fungicidal activity against Monilinia laxa isolate MLBO7 assessed as reduction in mycelial growth rate at 25 degC after 4 days; type: functional, organism-based; conditions: isolate MLBO7, 96 h
Monilinia laxa [5] = assay: Fungicidal activity against Monilinia laxa isolate MLBO2 assessed as mean number of conidia produced in the colony at 25 degC after 12 days by haemocytometer; type: functional
Monilinia laxa [6] = assay: Fungicidal activity against Monilinia laxa isolate KX3 assessed as reduction in mycelial growth rate at 1 to 10 ug/ml at 31 degC after 5 days; type: functional, organism-based
Monilinia laxa [7] = assay: Fungicidal activity against Monilinia laxa isolate MLK2 assessed as reduction in mycelial growth rate at 1 to 10 ug/ml at 31 degC after 5 days; type: functional, organism-based
Monilinia laxa [8] = assay: Fungicidal activity against Monilinia laxa isolate MLK4 assessed as reduction in mycelial growth rate at 1 to 10 ug/ml at 28 degC after 8 days; type: functional, organism-based
Monilinia laxa [9] = assay: Fungicidal activity against Monilinia laxa isolate MLK5 assessed as reduction in mycelial growth rate at 1 to 10 ug/ml at 31 degC after 5 days; type: functional, organism-based
Monilinia laxa [10] = assay: Fungicidal activity against Monilinia laxa isolate MLG1 assessed as reduction in mycelial growth rate at 25 degC after 4 days; type: functional, organism-based; conditions: isolate MLG1, 96 h
Monilinia laxa [11] = assay: Fungicidal activity against Monilinia laxa isolate MLP4 assessed as mycelial growth at 1 ug/ml at 25 degC after 4 days; type: functional
Monilinia laxa [12] = assay: Fungicidal activity against Monilinia laxa isolate MLK1 assessed as mean mycelial colony diameter at 25 degC after 4 days; type: functional
Monilinia laxa [13] = assay: Fungicidal activity against Monilinia laxa isolate MLX5 assessed as reduction in mycelial growth rate at 25 degC after 4 days; type: functional, organism-based; conditions: isolate MLX5, 96 h
Monilinia laxa [14] = assay: Fungicidal activity against Monilinia laxa isolate MLK1 assessed as reduction in mycelial growth rate at 1 to 10 ug/ml at 25 to 28 degC; type: functional, organism-based
Monilinia laxa [15] = assay: Fungicidal activity against Monilinia laxa isolate MLC2 assessed as mean number of conidia produced in the colony at 25 degC after 12 days by haemocytometer; type: functional
Monilinia laxa [16] = assay: Fungicidal activity against Monilinia laxa isolate MLX1 assessed as reduction in mycelial growth rate at 1 to 10 ug/ml at 25 to 28 degC; type: functional, organism-based
Monilinia laxa [17] = assay: Fungicidal activity against Monilinia laxa isolate B1 assessed as reduction in mycelial growth rate at 1 to 10 ug/ml at 31 degC after 5 days; type: functional, organism-based
Monilinia laxa [18] = assay: Fungicidal activity against Monilinia laxa isolate MLK2 assessed as reduction in mycelial growth rate at 25 degC after 4 days; type: functional, organism-based; conditions: isolate MLK2, 96 h
Monilinia laxa [19] = assay: Fungicidal activity against Monilinia laxa isolate MLX1 assessed as reduction in mycelial growth rate at 1 to 10 ug/ml at 28 degC after 8 days; type: functional, organism-based
Monilinia laxa [20] = assay: Fungicidal activity against Monilinia laxa isolate MLG1 assessed as mycelial growth at 1 ug/ml at 25 degC after 4 days; type: functional
Monilinia laxa [21] = assay: Fungicidal activity against Monilinia laxa isolate MLBO2 assessed as mean mycelial colony diameter at 25 degC after 4 days; type: functional
Monilinia laxa [22] = assay: Fungicidal activity against Monilinia laxa isolate MLP7 assessed as reduction in mycelial growth rate at 1 to 10 ug/ml at 31 degC after 5 days; type: functional, organism-based
Monilinia laxa [23] = assay: Fungicidal activity against Monilinia laxa isolate MLC2 assessed as virulence in prune fruits assessed as virulence treated 10 min prior to mycelial inoculation at 24 degC after 10 days relative to isolate MLX1by pathogenicity bioassay; type: functional
Monilinia laxa [24] = assay: Fungicidal activity against Monilinia laxa isolate MLX2 assessed as reduction in mycelial growth rate at 1 to 10 ug/ml at 31 degC after 5 days; type: functional, organism-based
Monilinia laxa [25] = assay: Fungicidal activity against Monilinia laxa isolate MLC2 assessed as reduction in mycelial growth rate at 1 to 10 ug/ml at 31 degC after 5 days; type: functional, organism-based
Monilinia laxa [26] = assay: Fungicidal activity against Monilinia laxa isolate MLK12 assessed as reduction in mycelial growth rate at 1 to 10 ug/ml at 28 degC after 8 days; type: functional, organism-based
Monilinia laxa [27] = assay: Fungicidal activity against Monilinia laxa isolate MLP4 assessed as mean number of conidia produced in the colony at 25 degC after 12 days by haemocytometer; type: functional
Monilinia laxa [28] = assay: Fungicidal activity against Monilinia laxa isolate KX4 assessed as reduction in mycelial growth rate at 25 degC after 4 days; type: functional, organism-based; conditions: isolate KX4, 96 h
Monilinia laxa [29] = assay: Fungicidal activity against Monilinia laxa isolate MLK1 assessed as mycelial growth at 1 ug/ml at 25 degC after 4 days; type: functional
Monilinia laxa [30] = assay: Fungicidal activity against Monilinia laxa isolate MLC1 assessed as reduction in mycelial growth rate at 25 degC after 4 days; type: functional, organism-based; conditions: isolate MLC1, 96 h
Monilinia laxa [31] = assay: Fungicidal activity against Monilinia laxa isolate MLK4A assessed as reduction in mycelial growth rate at 25 degC after 4 days; type: functional, organism-based; conditions: 96 h
Monilinia laxa [32] = assay: Fungicidal activity against Monilinia laxa isolate MLK4 assessed as reduction in mycelial growth rate at 1 to 10 ug/ml at 31 degC after 5 days; type: functional, organism-based
Monilinia laxa [33] = assay: Fungicidal activity against Monilinia laxa isolate MLK2 assessed as reduction in mycelial growth rate at 1 to 10 ug/ml at 25 to 28 degC; type: functional, organism-based
Monilinia laxa [34] = assay: Fungicidal activity against Monilinia laxa isolate MLC1 assessed as reduction in mycelial growth rate at 1 to 10 ug/ml at 31 degC after 5 days; type: functional, organism-based
Monilinia laxa [35] = assay: Fungicidal activity against Monilinia laxa isolate MLX5 assessed as mean mycelial colony diameter at 25 degC after 4 days; type: functional
Monilinia laxa [36] = assay: Fungicidal activity against Monilinia laxa isolate MLK12 assessed as mycelial growth at 1 ug/ml at 25 degC after 4 days; type: functional
Monilinia laxa [37] = assay: Fungicidal activity against Monilinia laxa isolate MLK12 assessed as virulence in prune fruits assessed as virulence treated 10 min prior to mycelial inoculation at 24 degC after 10 days relative to isolate MLX1by pathogenicity bioassay; type: functional
Monilinia laxa [38] = assay: Fungicidal activity against Monilinia laxa isolate MLBO6 assessed as reduction in mycelial growth rate at 1 to 10 ug/ml at 31 degC after 5 days; type: functional, organism-based
Monilinia laxa [39] = assay: Fungicidal activity against Monilinia laxa isolate MLX5 assessed as reduction in mycelial growth rate at 1 to 10 ug/ml at 31 degC after 5 days; type: functional, organism-based
Monilinia laxa [40] = assay: Fungicidal activity against Monilinia laxa isolate MLX2 assessed as reduction in mycelial growth rate at 25 degC after 4 days; type: functional, organism-based; conditions: isolate MLX2, 96 h
Monilinia laxa [41] = assay: Fungicidal activity against Monilinia laxa isolate MLK1 assessed as virulence in prune fruits assessed as virulence treated 10 min prior to mycelial inoculation at 24 degC after 10 days relative to isolate MLX1by pathogenicity bioassay; type: functional
Monilinia laxa [42] = assay: Fungicidal activity against Monilinia laxa isolate MLG3 assessed as reduction in mycelial growth rate at 25 degC after 4 days; type: functional, organism-based; conditions: isolate MLG3, 96 h

## COC(=O)Nc1nc2ccccc2[nH]1 [CARBENDAZIM]
Monilinia laxa [1]
  inhibition: Active
Monilinia laxa [2]
  Activity: 5 /cm2
Monilinia laxa [3]
  Activity: 100%
Monilinia laxa [4]
  EC50: 0.1 µg/mL (≈ 0.523 µM)
Monilinia laxa [5]
  Activity: 3.54 /cm2
Monilinia laxa [6]
  inhibition: Active
Monilinia laxa [7]
  inhibition: Active
Monilinia laxa [8]
  inhibition: inactive
Monilinia laxa [9]
  inhibition: Active
Monilinia laxa [10]
  EC50: 0.1 µg/mL (≈ 0.523 µM)
Monilinia laxa [11]
  Activity: 94.44%
Monilinia laxa [12]
  Activity: 30.55 mm
Monilinia laxa [13]
  EC50: > 50 µg/mL
Monilinia laxa [14]
  inhibition: inactive
Monilinia laxa [15]
  Activity: 5 /cm2
Monilinia laxa [16]
  inhibition: inactive
Monilinia laxa [17]
  inhibition: Active
Monilinia laxa [18]
  EC50: > 50 µg/mL
Monilinia laxa [19]
  inhibition: inactive
Monilinia laxa [20]
  Activity: 0%
Monilinia laxa [21]
  Activity: 30.2 mm
Monilinia laxa [22]
  inhibition: Active
Monilinia laxa [23]
  Activity: 98.52%
Monilinia laxa [24]
  inhibition: Active
Monilinia laxa [25]
  inhibition: Active
Monilinia laxa [26]
  inhibition: inactive
Monilinia laxa [27]
  Activity: 3.98 /cm2
Monilinia laxa [28]
  EC50: > 50 µg/mL
Monilinia laxa [29]
  Activity: 99.9%
Monilinia laxa [30]
  EC50: 0.03 µg/mL (≈ 0.157 µM)
Monilinia laxa [31]
  EC50: 0.12 µg/mL (≈ 0.628 µM)
Monilinia laxa [32]
  inhibition: Active
Monilinia laxa [33]
  inhibition: inactive
Monilinia laxa [34]
  inhibition: Active
Monilinia laxa [35]
  Activity: 28.3 mm
Monilinia laxa [36]
  Activity: 95.82%
Monilinia laxa [37]
  Activity: 99.2%
Monilinia laxa [38]
  inhibition: Active
Monilinia laxa [39]
  inhibition: Active
Monilinia laxa [40]
  EC50: 0.12 µg/mL (≈ 0.628 µM)
Monilinia laxa [41]
  Activity: 97.77%
Monilinia laxa [42]
  EC50: 0.08 µg/mL (≈ 0.418 µM)
